Patent US11191779B2, “Pharmaceutical composition for preventing or treating cancer, comprising tetraarsenic hexoxide crystalline polymorph” (CHEMAS CO., LTD., priority 2016, dated 2021)
pIC50: −log10 of the molar value.

Key:
[1] = system: human lung cancer cell line SK-MES-1; assay: MTT cell proliferation assay, lung cancer cell line SK-MES-1; format: cell-based
Description: (§1) As human cancer cell lines, human lung cancer cell lines NCL-H226 and SK-MES-1, human esophageal cancer cell lines KYSE-150 and TE-1, human gastric cancer cell line AGS, human colorectal cancer cell lines HT29 and HCT116, human prostate cancer cell line PC-3, human pancreatic cancer cell lines BxPC-3 and PANC-1, human cervical cancer cell lines SiHa and HeLa, human ovarian cancer cell line SK-OV-3, and human endometrial cancer cell lines Ishikawa, HEC-1A, and HEC-1B were obtained from the Shanghai Cell Bank of Chinese Academy of Sciences. […]
(§2) The effects of Example 1 and Comparative Examples 1 to 3 on cell proliferation were assessed using MTT assay. […] All the crystals were completely dissolved by standing at room temperature for 15 minutes, and the absorbance was measured using a micro-plate reader at a wavelength of 570 nm (A570 nm).
(§3) The absorbance value of the control group treated without the sample was calculated as 100, and the absorbance value of the treatment group treated with the sample, compared with that of the control group, was calibrated, and the percentage of inhibition of cell proliferation was calculated according to the following equation. Percentage (%) of inhibition of cell proliferation=((mean absorbance of control group cells−mean absorbance of treatment group cells)/mean absorbance of control group cells)×100

[2] = system: human prostate cancer cell line PC-3; assay: MTT cell proliferation assay, prostate cancer cell line PC-3; format: cell-based; conditions: PC-3, treatment for 72 hours, read-out: Cancer cell growth inhibition (IC50)
Description: as §1, §2, §3

[3] = system: human endometrial cancer cell line Ishikawa; assay: MTT cell proliferation assay, endometrial cancer cell line Ishikawa; format: cell-based; conditions: treatment for 72 hours, read-out: Cancer cell growth inhibition (IC50)
Description: as §1, §2, §3

[4] = system: human pancreatic cancer cell line PANC-1; assay: MTT cell proliferation assay, pancreatic cancer cell line PANC-1; format: cell-based
Description: as §1, §2, §3

[5] = system: various cancer cells, such as brain cancer, breast cancer, liver cancer, and skin cancer; assay: Proliferation of other cancer cells (data not shown); format: cell-based
[6] = system: human colorectal cancer cell line HT29; assay: MTT cell proliferation assay, colorectal cancer cell line HT29; format: cell-based
Description: as §1, §2, §3

[7] = system: human cervical cancer cell line HeLa; assay: MTT cell proliferation assay, cervical cancer cell line HeLa; format: cell-based; conditions: treatment for 72 hours, read-out: Cancer cell growth inhibition (IC50)
Description: as §1, §2, §3

[8] = system: human esophageal cancer cell line TE-1; assay: MTT cell proliferation assay, esophageal cancer cell line TE-1; format: cell-based
Description: as §1, §2, §3

[9] = system: human ovarian cancer cell line SK-OV-3; assay: MTT cell proliferation assay, ovarian cancer cell line SK-OV-3; format: cell-based; conditions: SK-OV-3, treatment for 72 hours, read-out: Cancer cell growth inhibition (IC50)
Description: as §1, §2, §3

[10] = system: human colorectal cancer cell line HCT116; assay: MTT cell proliferation assay, colorectal cancer cell line HCT116; format: cell-based
Description: as §1, §2, §3

[11] = system: human cervical cancer cell line SiHa; assay: MTT cell proliferation assay, cervical cancer cell line SiHa; format: cell-based; conditions: treatment for 72 hours, read-out: Cancer cell growth inhibition (IC50)
Description: as §1, §2, §3

[12] = system: human gastric cancer cell line AGS; assay: MTT cell proliferation assay, gastric cancer cell line AGS; format: cell-based
Description: As human cancer cell lines, human lung cancer cell lines NCL-H226 and SK-MES-1, human esophageal cancer cell lines KYSE-150 and TE-1, human gastric cancer cell line AGS, human colorectal cancer cell lines HT29 and HCT116, human prostate cancer cell line PC-3, human pancreatic cancer cell lines BxPC-3 and PANC-1, human cervical cancer cell lines SiHa and HeLa, human ovarian cancer cell line SK-OV-3, and human endometrial cancer cell lines Ishikawa, HEC-1A, and HEC-1B were obtained from the Shanghai Cell Bank of Chinese Academy of Sciences. The cells were incubated in media supplemented with 10% FBS, 50 U/ml penicillin, and 50 μg/ml streptomycin and suitable for incubation of respective cells (RPMI-1640 (NCL-H226, TE-1, BxPC-3, Ishikawa), MEM (SK-MES-1, SiHa, HeLa, HEC-1B), Ham's F-12K (AGS), Ham's F-12 (PC-3), McCOY's 5A (HT29, HCT116, SK-OV-3, HEC-1A), RPMI-1640:Ham's F-12=1:1(v:v) (KYSE-150), and DMEM (PANC-1)) in a humidified incubator with 5% CO2 and 95% air. The media were exchanged every three days.
as §2, with “assay. MTT assay is based on the ability of viable cells against MTT to produce insoluble dark blue formazan products.” for “assay.”
as §3

[13] = system: human lung cancer cell line NCL-H226; assay: MTT cell proliferation assay, lung cancer cell line NCL-H226; format: cell-based
Description: as §1, §2, §3

[14] = system: human endometrial cancer cell line HEC-1A; assay: MTT cell proliferation assay, endometrial cancer cell line HEC-1A; format: cell-based; conditions: treatment for 72 hours, read-out: Cancer cell growth inhibition (IC50)
Description: as §1, §2, §3

[15] = system: human endometrial cancer cell line HEC-1B; assay: MTT cell proliferation assay, endometrial cancer cell line HEC-1B; format: cell-based; conditions: treatment for 72 hours, read-out: Cancer cell growth inhibition (IC50)
Description: as §1, §2, §3

[16] = system: human esophageal cancer cell line KYSE-150; assay: MTT cell proliferation assay, esophageal cancer cell line KYSE-150; format: cell-based
Description: as §1, §2, §3

[17] = system: human pancreatic cancer cell line BxPC-3; assay: MTT cell proliferation assay, pancreatic cancer cell line BxPC-3; format: cell-based
Description: as §1, §2, §3

[18] = system: uterine cancer, bladder cancer, lung cancer, maxillary sinus cancer, kidney cancer; conditions: end-stage cancer patients; cited from earlier work
cancer metastasis = conditions: animal experiments; cited from earlier work

Question: With `O1[As]2O[As]3O[As]1O[As](O2)O3` [Example 1, tetraarsenic hexoxide] as the molecule, how does the pIC50 ([1]; Lung cancer, SK-MES-1, treatment for 72 hours, read-out: Cancer cell growth inhibition (IC50)) read?
Answer: Its pIC50 is 5.61.

Question: And the “percentage of inhibition of cell proliferation according to treatment time” value (“percentage of inhibition … to treatment time” below) ([1]; SK-MES-1, 10 μM, 24, 48, 72 hours (FIG. 3))?
Answer: The value was “increased with the treatment time”.

Question: And the pIC50 [2]?
Answer: The pIC50 was 5.30.

Question: What about the pIC50 [3] of the same molecule?
Answer: Its pIC50 is 5.56.

Question: And the “percentage of inhibition of cell proliferation according to concentration” value ([4]; PANC-1, different concentrations, 72 hours (FIG. 8B))?
Answer: Its value is “increased dependent on the concentration of Example 1”.

Question: What about the pIC50 ([4]; Pancreatic cancer, PANC-1, treatment for 72 hours, read-out: Cancer cell growth inhibition (IC50)) of the same molecule?
Answer: Its pIC50 is 5.25.

Question: And the “inhibition of proliferation of various cancer cells” value [5]?
Answer: The value was “confirmed to inhibit the proliferation”.

Question: What about the pIC50 ([6]; Colorectal cancer, HT29, treatment for 72 hours, read-out: Cancer cell growth inhibition (IC50)) of the same molecule?
Answer: The pIC50 was 5.90.

Question: And the “percentage of inhibition … to treatment time” value ([6]; HT29, 10 μM, 24, 48, 72 hours (FIG. 6A))?
Answer: The value was “increased with the treatment time”.

Question: What about the pIC50 [7] of the same molecule?
Answer: Its pIC50 is 5.79.

Question: What about the pIC50 ([8]; Esophageal cancer, TE-1, treatment for 72 hours, read-out: Cancer cell growth inhibition (IC50)) of the same molecule?
Answer: Its pIC50 is 5.63.

Question: And the “percentage of inhibition … to treatment time” value ([8]; TE-1, 10 μM, 24, 48, 72 hours (FIG. 4A))?
Answer: The value was “increased with the treatment time”.

Question: And the pIC50 [9]?
Answer: The pIC50 was 5.30.

Question: And the pIC50 ([10]; Colorectal cancer, HCT116, treatment for 72 hours, read-out: Cancer cell growth inhibition (IC50))?
Answer: The pIC50 was 5.29.

Question: And the “percentage of inhibition … to treatment time” value ([10]; HCT116, 10 μM, 24, 48, 72 hours (FIG. 6A))?
Answer: Its value is “increased with the treatment time”.

Question: What about the pIC50 [11] of the same molecule?
Answer: Its pIC50 is 5.55.

Question: And the pIC50 ([12]; Gastric cancer, treatment for 72 hours, read-out: Cancer cell growth inhibition (IC50))?
Answer: The pIC50 was 6.05.

Question: What about the “inhibition of cell proliferation according to treatment time and concentration” value ([12]; different concentrations, 24, 48, 72 hours (FIG. 5A)) of the same molecule?
Answer: Its value is “increased with the treatment time at each treatment concentration”.

Question: What about the “percentage of inhibition of gastric cancer cell proliferation at 48 hours” value ([12]; treatment for 48 hours (FIG. 5A)) of the same molecule?
Answer: Its value is “high in spite of the treatment for only 48 hours”.

Question: What about the pIC50 ([13]; Lung cancer, NCL-H226, treatment for 72 hours, read-out: Cancer cell growth inhibition (IC50)) of the same molecule?
Answer: Its pIC50 is 5.29.

Question: And the “percentage of inhibition … to treatment time” value ([13]; NCL-H226, 10 μM, 24, 48, 72 hours (FIG. 3))?
Answer: Its value is “increased with the treatment time”.

Question: And the pIC50 [14]?
Answer: Its pIC50 is 5.61.

Question: And the pIC50 [15]?
Answer: Its pIC50 is 5.34.

Question: What about the pIC50 ([16]; Esophageal cancer, KYSE-150, treatment for 72 hours, read-out: Cancer cell growth inhibition (IC50)) of the same molecule?
Answer: Its pIC50 is 5.01.

Question: And the “percentage of inhibition … to treatment time” value ([16]; KYSE-150, 10 μM, 24, 48, 72 hours (FIG. 4A))?
Answer: Its value is “significantly increased in the treatment for 72 hours”.

Question: And the “percentage of inhibition of cell proliferation according to concentration” value ([17]; BxPC-3, different concentrations, 72 hours (FIG. 8B))?
Answer: The value was “increased dependent on the concentration of Example 1”.

Question: What about the pIC50 ([17]; Pancreatic cancer, BxPC-3, treatment for 72 hours, read-out: Cancer cell growth inhibition (IC50)) of the same molecule?
Answer: The pIC50 was 5.30.

Question: Which anticancer treatment effects [18] does the source give for `O1[As]2O[As]3O[As]1O[As](O2)O3` [tetraarsenic hexoxide] here?
Answer: The anticancer treatment effects was “had excellent anticancer treatment effects”.

Question: What about the “cancer metastasis suppressing effects” value (cancer metastasis) of the same molecule?
Answer: Its value is “showed cancer metastasis suppressing effects”.
